pIC50: −log10 of the molar value.
Molecular target: Human factor D (Homo sapiens (Human), UniProt P00746)
Experiment: Human Factor D Assay
Type: biochemical
Conditions: Human factor D 80 nM, substrate Z-L-Lys-SBzl and DTNB 100 μM each, pH 7.5
Experimental: Example 14. Human Factor D Assay
Human factor D (purified from human serum, Complement Technology, Inc.) at 80 nM final concentration is incubated with test compound at various concentrations for 5 minutes at room temperature in 50 mM Tris, 1M NaCl, pH 7.5. A synthetic substrate Z-L-Lys-SBzl and DTNB (Ellman's reagent) are added to final concentrations of 100 μM each. The increase in color is recorded at OD405 nm in a microplate in kinetic mode over 30 minutes with 30 second time points in a spectrofluorimeter. IC50 values are calculated by non-linear regression from the percentage of inhibition of complement factor D activity as a function of test compound concentration.

Sequence of Human factor D (P00746 26-253): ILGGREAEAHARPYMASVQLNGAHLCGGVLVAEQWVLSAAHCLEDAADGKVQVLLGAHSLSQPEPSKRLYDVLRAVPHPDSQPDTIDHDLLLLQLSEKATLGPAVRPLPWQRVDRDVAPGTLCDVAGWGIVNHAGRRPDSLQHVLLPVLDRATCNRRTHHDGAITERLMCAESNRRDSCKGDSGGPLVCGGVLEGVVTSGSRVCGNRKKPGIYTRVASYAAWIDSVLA

Row | SMILES | pIC50
1 | CC(=O)c1cn(CC(=O)N2C[C@H](F)C[C@H]2C(=O)NCc2cccc(Cl)c2F)c2ccc(NC(=O)NC(C)C)cc12 [Compound 6, (2S,4R)-1-(2-(3-acetyl-5-(3-isopropylureido)-1H-indol-1-yl)acetyl)-N-(3-chloro-2-fluorobenzyl)-4-fluoropyrrolidine-2-carboxamide] | > 6.00
2 | CC(=O)c1cn(CC(=O)N2C[C@H](F)C[C@H]2C(=O)Nc2cccc(-c3ccccc3Cl)c2F)c2ccc(NC(=O)N3CCCC(F)(F)C3)cc12 [Compound 18, N-(3-acetyl-1-(2-((2S,4R)-2-(2′-chloro-2-fluorobiphenyl-3-ylcarbamoyl)-4-fluoropyrrolidin-1-yl)-2-oxoethyl)-1H-indol-5-yl)-3,3-difluoropiperidine-1-carboxamide] | > 6.00
3 | CC(=O)c1cn(CC(=O)N2C[C@H](F)C[C@H]2C(=O)NCc2cccc(Cl)c2F)c2ccc(NC(=O)NCc3ccon3)cc12 [Compound 7, (2S,4R)-1-(2-(3-acetyl-5-(3-(isoxazol-3-ylmethyl)ureido)-1H-indol-1-yl)acetyl)-N-(3-chloro-2-fluorobenzyl)-4-fluoropyrrolidine-2-carboxamide] | > 6.00
4 | CC(=O)c1cn(CC(=O)N2C[C@H](F)C[C@H]2C(=O)NCc2cccc(Cl)c2F)c2ccc(NC(=O)NCC(F)(F)F)cc12 [Compound 21, (2S,4R)-1-(2-(3-acetyl-5-(3-(2,2,2-trifluoroethyl)ureido)-1H-indol-1-yl)acetyl)-N-(3-chloro-2-fluorobenzyl)-4-fluoropyrrolidine-2-carboxamide] | > 6.00
5 | CC(=O)c1cn(CC(=O)N2C[C@H](F)C[C@H]2C(=O)NCc2cccc(Cl)c2F)c2ccc(NC(=O)NC3CC3)cc12 [Compound 1, (2S,4R)-1-(2-(3-acetyl-5-(3-cyclopropylureido)-1H-indol-1-yl)acetyl)-N-(3-chloro-2-fluorobenzyl)-4-fluoropyrrolidine-2-carboxamide] | > 6.00
6 | CC(=O)c1cn(CC(=O)N2C[C@H](F)C[C@H]2C(=O)NCc2cccc(Cl)c2F)c2ccc(C(=O)N3CC=C(B(O)O)CC3)cc12 [Compound 38, 1-(3-acetyl-1-(2-((2S,4R)-2-(3-chloro-2-fluorobenzylcarbamoyl)-4-fluoropyrrolidin-1-yl)-2-oxoethyl)-1H-indole-5-carbonyl)-1,2,3,6-tetrahydropyridin-4-ylboronic acid] | > 6.00
7 | CC(=O)c1cn(CC(=O)N2C[C@H](F)C[C@H]2C(=O)NCc2cccc(Cl)c2F)c2ccc(NC(=O)Nc3cncnc3)cc12 [Compound 23, (2S,4R)-1-(2-(3-acetyl-5-(3-pyrimidin-5-ylureido)-1H-indol-1-yl)acetyl)-N-(3-chloro-2-fluorobenzyl)-4-fluoropyrrolidine-2-carboxamide] | > 6.00
8 | CC(=O)c1cn(CC(=O)N2[C@@H]3C[C@@H]3C[C@H]2C(=O)Nc2cccc(OC(F)(F)F)c2F)c2ccc(NC(=O)NC3CC3)cc12 [Compound 11, (1R,3S,5R)-2-(2-(3-acetyl-5-(3-cyclopropylureido)-1H-indol-1-yl)acetyl)-N-(2-fluoro-3-(trifluoromethoxy)phenyl)-2-azabicyclo[3.1.0]hexane-3-carboxamide] | > 6.00
9 | NC(=O)c1nn(CC(=O)N2[C@@H]3C[C@@H]3C[C@H]2C(=O)Nc2cccc(OC(F)(F)F)c2F)c2ccc(NC(=O)N3CCCC(F)(F)C3)cc12 [Compound 27, 5-(3,3-difluoropiperidine-1-carboxamido)-1-(2-((1R,3S,5R)-3-(2-fluoro-3-(trifluoromethoxy)phenylcarbamoyl)-2-azabicyclo[3.1.0]hexan-2-yl)-2-oxoethyl)-1H-indazole-3-carboxamide] | > 6.00
10 | CC(=O)c1cn(CC(=O)N2C[C@H](F)C[C@H]2C(=O)Nc2cccc(OC(F)(F)F)c2F)c2ccc(NC(=O)N3CCCC(F)(F)C3)cc12 [Compound 17, N-(3-acetyl-1-(2-((2S,4R)-4-fluoro-2-(2-fluoro-3-(trifluoromethoxy)phenylcarbamoyl)pyrrolidin-1-yl)-2-oxoethyl)-1H-indol-5-yl)-3,3-difluoropiperidine-1-carboxamide] | > 6.00

Reference: patent US9695205B2, “Amide compounds for treatment of complement mediated disorders” (Achillion Pharmaceuticals, Inc., priority 2014, dated 2017)
